Measured values from PubChem BioAssay AID180 (DTP/NCI, 2004).
Where “and” joins values, the source holds several entries; their conditions need not be identical. Identical values can stand only once.

Tested on: BDF1 mice, Adenocarcinoma 755 s.c., tumor weight T/C
Experiment: NCI In Vivo Anticancer Drug Screen. Data for tumor model Adenocarcinoma 755 (subcutaneous) in B6D2F1 (BDF1) mice
Settings: endpoint: mean tumor weight, higher = larger tumour
Method in brief: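 Tumor-bearing mice receive test compound while controls get vehicle alone. Antitumor effect is scored from survival or tumor dimensions as a T/C quotient.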

## Cn1c(=N)nc(SCc2ccccc2Cl)c2[nH]cnc21
dose: 30.0 mg/kg/injection, schedule: Q01DX011 (ip), vehicle: carboxymethylcellulose (CMC)
  T/C: 88 % of control
dose: 60.0 mg/kg/injection, schedule: Q01DX011 (ip), vehicle: carboxymethylcellulose (CMC)
  T/C: 118 % of control
dose: 120.0 mg/kg/injection, schedule: Q01DX011 (ip), vehicle: carboxymethylcellulose (CMC)
  T/C: 88 % of control
dose: 240.0 mg/kg/injection, schedule: Q01DX011 (ip), vehicle: carboxymethylcellulose (CMC)
  T/C: 16 % of control

## CC(=O)C(CCC(=O)O)(CCC(=O)O)c1ccccc1
dose: 30.0 mg/kg/injection, schedule: Q01DX011 (ip), vehicle: other
  T/C: 87 % of control
dose: 60.0 mg/kg/injection, schedule: Q01DX011 (ip), vehicle: other
  T/C: 71 % of control
dose: 120.0 mg/kg/injection, schedule: Q01DX011 (ip), vehicle: other
  T/C: 117 % of control
dose: 240.0 mg/kg/injection, schedule: Q01DX011 (ip), vehicle: other
  T/C: 97 % of control

## Nc1nc(SCc2ccccc2)c2ncn(C3CCCC3)c2n1
dose: 4.6 mg/kg/injection, schedule: Q01DX011 (ip), vehicle: carboxymethylcellulose (CMC)
  T/C: 79 % of control
dose: 9.3 mg/kg/injection, schedule: Q01DX011 (ip), vehicle: carboxymethylcellulose (CMC)
  T/C: 70 % of control
dose: 18.7 mg/kg/injection, schedule: Q01DX011 (ip), vehicle: carboxymethylcellulose (CMC)
  T/C: 69 % of control
dose: 37.5 mg/kg/injection, schedule: Q01DX011 (ip), vehicle: carboxymethylcellulose (CMC)
  T/C: 24 % of control
dose: 75.0 mg/kg/injection, schedule: Q01DX011 (ip), vehicle: carboxymethylcellulose (CMC)
  T/C: 11 % of control
dose: 150.0 mg/kg/injection, schedule: Q01DX011 (ip), vehicle: carboxymethylcellulose (CMC)
  T/C: 2 % of control
dose: 300.0 mg/kg/injection, schedule: Q01DX011 (ip), vehicle: carboxymethylcellulose (CMC)
  T/C: 1 % of control
dose: 375.0 mg/kg/injection, schedule: Q01DX011 (ip), vehicle: carboxymethylcellulose (CMC)
  T/C: 33 % of control

## CSc1ncc(Br)c(SC)n1
dose: 31.0 mg/kg/injection, schedule: Q01DX011 (ip), vehicle: methylcellulose (MC)
  T/C: 102 % of control
dose: 62.0 mg/kg/injection, schedule: Q01DX011 (ip), vehicle: methylcellulose (MC)
  T/C: 93 % of control

## CN1CC(=O)N=C1N
dose: 250.0 mg/kg/injection, schedule: Q#A X022 (ip), vehicle: water
  T/C: 47 % of control
dose: 375.0 mg/kg/injection, schedule: Q#A X022 (ip), vehicle: water
  T/C: 88 % of control
dose: 500.0 mg/kg/injection, schedule: Q#A X022 (ip), vehicle: water
  T/C: 36 % of control
dose: 750.0 mg/kg/injection, schedule: Q#A X022 (ip), vehicle: water
  T/C: 67 % of control
dose: 1250.0 mg/kg/injection, schedule: Q#A X022 (ip), vehicle: water
  T/C: 72 % of control
dose: 1500.0 mg/kg/injection, schedule: Q#A X022 (ip), vehicle: water
  T/C: 68 % of control

## CC(C)Cn1cnc2c(SCc3cccc(F)c3)nc(N)nc21
dose: 6.25 mg/kg/injection, schedule: Q01DX011 (ip), vehicle: methylcellulose (MC)
  T/C: 75 % of control
dose: 12.5 mg/kg/injection, schedule: Q01DX011 (ip), vehicle: methylcellulose (MC)
  T/C: 55 % of control
dose: 25.0 mg/kg/injection, schedule: Q01DX011 (ip), vehicle: methylcellulose (MC)
  T/C: 15 % of control
dose: 50.0 mg/kg/injection, schedule: Q01DX011 (ip), vehicle: methylcellulose (MC)
  T/C: 1 % of control

## CCCCN(C)/N=N/c1nc[nH]c1C(N)=O
dose: 80.0 mg/kg/injection, schedule: Q01DX011 (ip), vehicle: carboxymethylcellulose (CMC)
  T/C: 4 % of control

## CC(CNC(=O)CCOS(C)(=O)=O)CNC(=O)CCOS(C)(=O)=O
dose: 6.25 mg/kg/injection, schedule: Q01DX011 (ip), vehicle: carboxymethylcellulose (CMC)
  T/C: 120 % of control
dose: 12.5 mg/kg/injection, schedule: Q01DX011 (ip), vehicle: carboxymethylcellulose (CMC)
  T/C: 92 % of control
dose: 14.0 mg/kg/injection, schedule: Q01DX011 (ip), vehicle: carboxymethylcellulose (CMC)
  T/C: 73 % of control
dose: 25.0 mg/kg/injection, schedule: Q01DX011 (ip), vehicle: carboxymethylcellulose (CMC)
  T/C: 111 % of control
dose: 28.0 mg/kg/injection, schedule: Q01DX011 (ip), vehicle: carboxymethylcellulose (CMC)
  T/C: 108 % of control
dose: 50.0 mg/kg/injection, schedule: Q01DX011 (ip), vehicle: carboxymethylcellulose (CMC)
  T/C: 39 % of control
dose: 57.0 mg/kg/injection, schedule: Q01DX011 (ip), vehicle: carboxymethylcellulose (CMC)
  T/C: 72 % of control
dose: 100.0 mg/kg/injection, schedule: Q01DX011 (ip), vehicle: carboxymethylcellulose (CMC)
  T/C: 15 % of control
dose: 113.0 mg/kg/injection, schedule: Q01DX011 (ip), vehicle: carboxymethylcellulose (CMC)
  T/C: 20 % of control and 36 % of control
dose: 200.0 mg/kg/injection, schedule: Q01DX011 (ip), vehicle: carboxymethylcellulose (CMC)
  T/C: 2 % of control
dose: 225.0 mg/kg/injection, schedule: Q01DX011 (ip), vehicle: carboxymethylcellulose (CMC)
  T/C: 4 % of control
